What was measured:
[1] = Metal porphyrin study: metal porphyrin in water without apo-enzyme (Example IV); format: biochemical; details: HEMASTIX no lepidine/pH 7.5
Method: (§1) In this example, other metal porphyrins were tested for their ability to reactivate different types of apo-peroxidases. Metals such as Fe, Cu, Mg, Zn, Ni, Mn, Co and Pd were complexed to hematin and added to the peroxidase detecting agent. Metals such as Mn, Fe, Cu and Co and porphyrins other than hematin, i.e. deuteroporphyrin and coproporphyrin were also shown to provide the desired response.

apo-POD [2] = biological target: T1, apo-POD (Armoracia rusticana, UniProt P00433); test: Metal porphyrin study: reactivation of apo-peroxidase (Example IV); format: biochemical, horse radish; details: for % R @ 90 second read time on CLINITEK-200+, mean: 12 μM apo-POD, HEMASTIX no lepidine/pH 7.5; for response / activity with apo-peroxidase (in words): metal porphyrin study
T1 construct: purchased Sigma Chemical Company, St. Louis, Mo
T1 sequence (P00433 31-353): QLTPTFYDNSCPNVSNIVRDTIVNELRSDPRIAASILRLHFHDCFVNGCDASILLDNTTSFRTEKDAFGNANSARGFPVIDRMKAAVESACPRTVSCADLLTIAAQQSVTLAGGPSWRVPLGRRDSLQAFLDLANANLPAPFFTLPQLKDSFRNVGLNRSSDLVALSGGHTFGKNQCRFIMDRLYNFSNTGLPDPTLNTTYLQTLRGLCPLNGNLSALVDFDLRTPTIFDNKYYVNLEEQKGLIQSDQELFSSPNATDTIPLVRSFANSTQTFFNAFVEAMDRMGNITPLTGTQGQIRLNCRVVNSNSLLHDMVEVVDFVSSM
Method: as §1

apo-Hb = biological target: T2, apo-Hb (Homo sapiens, UniProt P68871+P69905); test: Metal porphyrin study: reactivation of apo-hemoglobin (Example IV); format: biochemical; details: 12 μM apo-Hb, 12 μM metal porphyrin, HEMASTIX no lepidine/pH 7.5
T2 construct: made in house
T2 sequence (P69905 2-142 limits assumed): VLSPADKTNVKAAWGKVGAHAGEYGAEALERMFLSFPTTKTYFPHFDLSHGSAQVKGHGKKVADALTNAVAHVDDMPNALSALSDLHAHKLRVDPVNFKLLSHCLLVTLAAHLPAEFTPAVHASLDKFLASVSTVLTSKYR
T2 sequence (P68871 2-147 limits assumed): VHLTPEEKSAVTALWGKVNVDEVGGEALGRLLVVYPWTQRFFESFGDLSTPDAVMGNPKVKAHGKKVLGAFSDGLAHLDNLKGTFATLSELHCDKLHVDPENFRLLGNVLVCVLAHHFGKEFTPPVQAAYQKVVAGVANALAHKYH
Method: as §1
A 0.7% solution of hemoglobin was lowered to pH 1.5 and the resulting solution was ultrafiltered through a 10 KDa cutoff membrane followed by several changes of water. Filtered material was reconstituted into water. The apo-hemoglobin passed […]. […] It produced a HEMASTIX® result of +++++ indicating a high concentration of hemoglobin.

apo-POD [3] = biological target: T1, apo-POD; test: Detection limit study: peroxidase activity / apo-POD reactivation read with HEMASTIX reagent (Example I); format: biochemical, horse radish; details: 1 minute @ 30° C.
apo-POD [4] = biological target: T1, apo-POD; test: as above; format: biochemical, horse radish; details: for peroxidase activity (in words): 3.6 nM
Method: In this example apo-peroxidase is compared to hematin and hematin-antigen conjugates to determine the detectable concentrations and effects of conjugation and antigen molecular weight on apo-enzyme reactivations. Solutions containing combinations of apo-POD, Fe^+3 hematin and hematin conjugate were tested for peroxidase activity. Peroxidase activity was measured in urine using HEMASTIX® reagent as set out in Table 3. This reagent is similar to that set out in Table 1 but lacking the metal porphyrin conjugate, competitive binder and apo-peroxidase while containing lepidine as an activator.
A 10 μL portion of hematin (3.6 μM, 0.23 mg/dL in phosphate buffered saline) or a 10 μL hematin-BJP allotment (3.6 μM, 8.61 mg/dL in phosphate buffered saline) was mixed with 10 μL apo-POD (3.6 μM, 14.0 mg/dL in phosphate buffered saline) all in 980 μL of phosphate buffered saline and then diluted to the desired concentration with additional phosphate buffered saline. The solution was incubated for 1 minute at 40° C. or at room temperature. The response of HEMASTIX® reagent dipped into the test solution was measured on a CLINITEK™-200 reflectance instrument. The response of the reagent set out in Table 1 on the phosphate buffered solution alone was 65.2% reflectance at 1 minute.
Apo-horse radish peroxidase was obtained from Sigma Chemical Company of St. Louis, Mo. The phosphate buffered solution was prepared by adding 0.69 g monobasic sodium phosphate, 0.71 g of dibasic sodium phosphate and 0.45 g of sodium chloride to 100 mL of water.
The HEMASTIX® reagent referred to earlier with the addition of lepidine and at a lower pH when compared to the formula of Table 1 was applied to the strip in a two dip system of the following composition and used in Examples I to IV (Table 3).

apo-POD [5] = biological target: T1, apo-POD; test: Interference study with peroxidase detecting dry reagent (Example III); format: biochemical, horse radish; details: hemoglobin/myoglobin: reagent without modification; ascorbate: system with ascorbate scavenger
Method: In this example, a peroxidase detecting dry reagent with resistance to 0.81 mg/dL hemoglobin (or myoglobin) and 25 mg/dL ascorbate and sufficient sensitivity to detect apo-peroxidase reactivation was used. […]
The reagent was tested by dipping it into solutions containing the interfering substance with and without Fe hematin. […]

apo-peroxidase = biological target: T3, apo-peroxidase (Armoracia rusticana, UniProt P00433); test: Proximity effect: antibody binding of hematin-antigen conjugate prevents apo-enzyme reactivation (Example II); format: biochemical, horse radish; details: for Reagent Response (% R @ 30 Sec) @ 660 nm: 36 nM apo-peroxidase, 36 nM antigen-hematin, 36 nM antibody
T3 construct: purchased Sigma Chemical Company, St. Louis, Mo
T3 sequence (P00433 31-353): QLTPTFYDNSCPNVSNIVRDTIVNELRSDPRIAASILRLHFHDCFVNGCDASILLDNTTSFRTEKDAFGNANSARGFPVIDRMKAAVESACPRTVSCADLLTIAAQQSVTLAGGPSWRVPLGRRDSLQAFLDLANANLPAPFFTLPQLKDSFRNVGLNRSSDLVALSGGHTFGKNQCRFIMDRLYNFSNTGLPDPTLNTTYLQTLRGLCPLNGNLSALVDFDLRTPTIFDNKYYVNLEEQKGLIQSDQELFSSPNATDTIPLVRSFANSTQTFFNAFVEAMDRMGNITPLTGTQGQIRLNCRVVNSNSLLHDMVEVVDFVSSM
Method: A 10 μL sample of hematin-BJP^1 (3.6 μM, 8.61 mg/dL in phosphate buffered saline), anti-BJP (3.6 μM, 52.56 mg/dL in PBS) and BJP (3.6 μM, 8.28 mg/dL in phosphate buffered saline) were mixed with 10 μL apo-POD (3.6 μM, 14.0 mg/dL in phosphate buffered saline) and […] phosphate buffered saline. The solution was incubated for 5 to 10 minutes at room temperature and the response to HEMASTIX® reagent dipped in the test solution was measured using a CLINITEK®-200 instrument. The response of HEMASTIX® reagent with the phosphate buffered saline solution containing hematin alone was 65.7% reflectance at 1 minute. Sheep anti-human BJP monoclonal antibody was obtained from The Binding Site Limited of Birmingham, England.
In this example, antibody binding of the hematin-antigen conjugate is shown to prevent apo-enzyme reactivation (Table 4). The data set out in Table 4 were generated by using the HEMASTIX® formula with lepidine but lacking apo-peroxidase, antigen-hematin antigen and antibody. The later were mixed in solution and reagent strips with the modified HEMASTIX® formula were immediately dipped into the solution and read using a CLINITEK™-200+ reflectance spectrometer.

[6] = 3.6 nM, antigen IgG, hematin, antigen-hematin or apo-POD alone (Cases A, B, E)
[7] = (3.6 nM; antigen Sulfmethazine), hematin, antigen-hematin or apo-POD alone (Cases A, B, E)
[8] = (3.6 mM; antigen BJP), hematin, antigen-hematin or apo-POD alone (Cases A, B, E)

## Co deuteroporphyrin
[1]; 120 μM metal porphyrin
  % R @ 90 second read time on CLINITEK-200+, mean: 71.5 % R
apo-POD [2]; 120 μM metal porphyrin
  % R @ 90 second read time on CLINITEK-200+, mean: 74.1 % R

## CC1=Cc2cc3[n-]c(cc4nc(cc5[n-]c(cc1n2)cc5C)C(C)=C4CCC(=O)O)c(CCC(=O)O)c3C.[Fe+2] [Fe deuteroporphyrin]
apo-Hb
  % R @ 90 second read time on CLINITEK-200+, mean: 49.2 % R
[1]; 12 μM metal porphyrin
  % R @ 90 second read time on CLINITEK-200+, mean: 72.2 % R
apo-POD [2]; 12 μM metal porphyrin
  % R @ 90 second read time on CLINITEK-200+, mean: 56.1 % R

## Ni deuteroporphyrin
[1]; 120 μM metal porphyrin
  % R @ 90 second read time on CLINITEK-200+, mean: 75.5 % R
apo-POD [2]; 120 μM metal porphyrin
  % R @ 90 second read time on CLINITEK-200+, mean: 76.1 % R

## apo-POD: Apo-horse radish peroxidase obtained from Sigma Chemical Company
apo-POD [3]; [6]
  Mean % Reflectance @ 660 nm: 62.3%
apo-POD [3]; [7]
  Mean % Reflectance @ 660 nm: 61.2%
apo-POD [3]; [8]
  Mean % Reflectance @ 660 nm: 64.1%
apo-POD [4]; without partner
  peroxidase activity (in words): no activity by itself
apo-POD [4]; 20-40° C.
  time to complete reactivation: 1 min

## Fe coproporphyrin
apo-Hb
  % R @ 90 second read time on CLINITEK-200+, mean: 52.1 % R
[1]; 12 μM metal porphyrin
  % R @ 90 second read time on CLINITEK-200+, mean: 69.7 % R
apo-POD [2]; 12 μM metal porphyrin
  % R @ 90 second read time on CLINITEK-200+, mean: 56.4 % R

## hemoglobin: interfering substance, 0.81 mg/dL
apo-POD [5]
  interference with peroxidase detecting reagent (in words): causes a false positive response

## CC1=Cc2cc3[n-]c(cc4nc(cc5[n-]c(cc1n2)cc5C)C(C)=C4CCC(=O)O)c(CCC(=O)O)c3C.[Mg+2] [Mg deuteroporphyrin]
[1]; 120 μM metal porphyrin
  % R @ 90 second read time on CLINITEK-200+, mean: 74.4 % R
apo-POD [2]; 120 μM metal porphyrin
  % R @ 90 second read time on CLINITEK-200+, mean: 70.9 % R

## Mn deuteroporphyrin
[1]; 120 μM metal porphyrin
  % R @ 90 second read time on CLINITEK-200+, mean: 66.4 % R
apo-POD [2]; 120 μM metal porphyrin
  % R @ 90 second read time on CLINITEK-200+, mean: 48.2 % R
apo-POD [2]
  response / activity with apo-peroxidase (in words): responses similar to those obtained for Fe

## CC1=Cc2cc3[n-]c(cc4nc(cc5[n-]c(cc1n2)cc5C)C(C)=C4CCC(=O)O)c(CCC(=O)O)c3C.[Zn+2] [Zn deuteroporphyrin]
[1]; 120 μM metal porphyrin
  % R @ 90 second read time on CLINITEK-200+, mean: 71.3 % R
apo-POD [2]; 120 μM metal porphyrin
  % R @ 90 second read time on CLINITEK-200+, mean: 70.7 % R

## Cc1cc(C)nc(NS(=O)(=O)c2ccc(N)cc2)n1 [Sulfamethazine]
apo-peroxidase; 24 nM antigen
  Reagent Response (% R @ 30 Sec) @ 660 nm: 21.3 % R
apo-peroxidase; free antigen none
  Reagent Response (% R @ 30 Sec) @ 660 nm: 23.6 % R
apo-peroxidase; antigen-hematin plus antibody
  prevention of apo-enzyme reactivation by antibody (in words): did not prevent apo-enzyme reactivation

## Pb deuteroporphyrin
[1]; 120 μM metal porphyrin
  % R @ 90 second read time on CLINITEK-200+, mean: 72.1 % R
apo-POD [2]; 120 μM metal porphyrin
  % R @ 90 second read time on CLINITEK-200+, mean: 73.4 % R

## CC1=Cc2cc3[n-]c(cc4nc(cc5[n-]c(cc1n2)cc5C)C(C)=C4CCC(=O)O)c(CCC(=O)O)c3C.[Cu+2] [Cu deuteroporphyrin]
[1]; 120 μM metal porphyrin
  % R @ 90 second read time on CLINITEK-200+, mean: 73.7 % R
apo-POD [2]; 120 μM metal porphyrin
  % R @ 90 second read time on CLINITEK-200+, mean: 57.2 % R
apo-POD [2]
  response / activity with apo-peroxidase (in words): responses similar to those obtained for Fe

## C=CC1=C(C)c2cc3[n-]c(cc4[n-]c(cc5nc(cc1n2)C(C)=C5C=C)c(C)c4CCC(=O)O)c(CCC(=O)O)c3C.O.[Fe+2] [hematin]
apo-peroxidase; phosphate buffered saline solution containing hematin alone, 1 minute
  response of HEMASTIX reagent, % reflectance: 65.7 % reflectance
apo-POD [3]; [6]
  Mean % Reflectance @ 660 nm: 64.9%
apo-POD [3]; 3.6 nM, antigen IgG, with apo-POD (Cases C, D)
  Mean % Reflectance @ 660 nm: 46.3%
apo-POD [3]; [7]
  Mean % Reflectance @ 660 nm: 63.4%
apo-POD [3]; (3.6 nM; antigen Sulfmethazine), with apo-POD (Cases C, D)
  Mean % Reflectance @ 660 nm: 48.9%
apo-POD [3]; [8]
  Mean % Reflectance @ 660 nm: 65.1%
apo-POD [3]; (3.6 mM; antigen BJP), with apo-POD (Cases C, D)
  Mean % Reflectance @ 660 nm: 55.3%
apo-POD [4]; in the presence of apo-POD
  peroxidase activity (in words): detectable at 3.6 nM
apo-POD [4]; without partner
  peroxidase activity (in words): not detectable

B1: myoglobin: interfering substance, 0.81 mg/dL (protein, UniProt P02144 2-154, looked up)
Myoglobin: GLSDGEWQLVLNVWGKVEADIPGHGQEVLIRLFKGHPETLEKFDKFKHLKSEDEMKASEDLKKHGATVLTALGGILKKKGHHEAEIKPLAQSHATKHKIPVKYLEFISECIIQVLQSKHPGDFGADAQGAMNKALELFRKDMASNYKELGFQG
apo-POD [5]
  interference with peroxidase detecting reagent (in words): causes a false positive response

Source: patent US6228602A, “Competitive apo-peroxidase assay” (Bayer Corporation, priority 1999, dated 2001)
